Read-outs that look alike come from different tables or passages of the source.
Test: Plasma pharmacokinetics, Phase 2 Duchenne muscular dystrophy study
Type: in vivo, human
Settings: for AUC(0-t) / Cmax: human, oral
Excerpt: FIG. 1 provides the plasma 3-[5-(2-fluoro-phenyl)-[1,2,4]oxadiazol-3-yl]-benzoic acid concentration-time profiles and PK parameters from 37 of 38 patients in a Phase 2 Duchenne muscular dystrophy study at 4-, 4-, and 8-mg/kg; 10-, 10-, and 20-mg/kg; and 20-, 20- and 40-mg/kg dose levels. The data from one patient was excluded from analysis due to insufficient data.
3-[5-(2-Fluoro-phenyl)-[1,2,4]oxadiazol-3-yl]-benzoic acid was provided in a formulation described herein. Treatment was administered over 28 days for each treatment cohort. An initial cohort of patients (n=6) were treated daily for 28 days with 3-[5-(2-fluoro-phenyl)-[1,2,4]oxadiazol-3-yl]-benzoic acid at 4-, 4-, and 8-mg/kg TID. After review of the clinical safety results, a second cohort of patients (n=20) were treated daily for 28 days with 3-[5-(2-fluoro-phenyl)-[1,2,4]oxadiazol-3-yl]-benzoic acid at 10-, 10-, and 20-mg/kg TID. Thus, each patient received a total of 84 doses of 3-[5-(2-fluoro-phenyl)-[1,2,4]oxadiazol-3-yl]-benzoic acid.
Blood for 3-[5-(2-fluoro-phenyl)-[1,2,4]oxadiazol-3-yl]-benzoic acid concentrations is collected immediately pre-dose and at 3 hours after administration of the first daily dose of study drug on the second day of each visit.
The study drug dosing and sample collection times are recorded. If a heparinized venous catheter is used for sample collection in order to avoid repeated needle sticks, at least 2 mL of blood is removed and discarded prior to each sample collection in order to avoid heparin contamination of the sample. All attempts are made to collect the blood samples at, or within ±5 minutes of, the scheduled time. The timing of the blood draw is in relation to the study drug dosing time.
Each sample comprises 2 mL of venous blood drawn into a 5-mL Vacutainer® or equivalent tube with K3-EDTA as the anticoagulant. Immediately after collection, the tube is gently inverted 8 to 10 times to mix the anticoagulant with the blood sample. The tube is stored upright on ice until centrifugation; centrifugation and sample processing are performed within 1 hour of sample collection. The plasma fraction is separated by placing the collection tube into a refrigerated centrifuge (4 to 8° C.) in a horizontal rotor (with a swing-out head) for a minimum of 15 minutes at 1500 to 1800 relative centrifugal force (RCF). The plasma fraction is withdrawn by pipette and divided into 2 polypropylene freezing tubes (with each tube receiving approximately equal aliquots). All sample collection and freezing tubes are clearly labeled in a fashion that identifies the subject, the study period, and the collection date and time. Labels are fixed to freezing tubes in a manner that will prevent the label from becoming detached after freezing. After processing, samples are placed into a freezer at approximately −20° C. (or lower).
Samples are stored for analysis of 3-[5-(2-fluoro-phenyl)-[1,2,4]oxadiazol-3-yl]-benzoic acid at the end of the study using a validated high performance liquid chromatography with tandem mass spectrometry (HPLC/MS-MS) method. Thereafter, samples are retained for potential later analyses.

[1] = 10, 10, 20 mg/kg TID, N = 20, mean
[2] = 20, 20, 40 mg/kg TID, N = 11, mean

Compound: O=C(O)c1cccc(-c2noc(-c3ccccc3F)n2)c1 [3-[5-(2-fluoro-phenyl)-[1,2,4]oxadiazol-3-yl]-benzoic acid]
- Cmin, Day 1 (4, 4, 8 mg/kg TID, N = 6, mean): 500 ng/mL
- Cmin, Day 28 (4, 4, 8 mg/kg TID, N = 6, mean): 600 ng/mL
- Cmin, Day 1 [1]: 3800 ng/mL
- Cmin, Day 28 [1]: 3400 ng/mL
- Cmin, Day 1 [2]: 9600 ng/mL
- Cmin, Day 28 [2]: 6700 ng/mL
- AUC(0-t) (8 mg/kg, 4, 4, 8 mg/kg TID, N = 6, mean, read-out: AUC0-24, Day 1): 87 µg·h/mL
- AUC(0-t) (8 mg/kg, 4, 4, 8 mg/kg TID, N = 6, mean, read-out: AUC0-24, Day 28): 91 µg·h/mL
- Cmax (8 mg/kg, 4, 4, 8 mg/kg TID, N = 6, mean, read-out: Cmax, Day 1): 10000 ng/mL
- Cmax (8 mg/kg, 4, 4, 8 mg/kg TID, N = 6, mean, read-out: Cmax, Day 28): 11000 ng/mL
- AUC(0-t) (20 mg/kg, 10, 10, 20 mg/kg TID, N = 20, mean, read-out: AUC0-24, Day 1): 291 µg·h/mL
- AUC(0-t) (20 mg/kg, 10, 10, 20 mg/kg TID, N = 20, mean, read-out: AUC0-24, Day 28): 235 µg·h/mL
- Cmax (20 mg/kg, 10, 10, 20 mg/kg TID, N = 20, mean, read-out: Cmax, Day 1): 27000 ng/mL
- Cmax (20 mg/kg, 10, 10, 20 mg/kg TID, N = 20, mean, read-out: Cmax, Day 28): 22000 ng/mL
- AUC(0-t) (40 mg/kg, 20, 20, 40 mg/kg TID, N = 11, mean, read-out: AUC0-24, Day 1): 866 µg·h/mL
- AUC(0-t) (40 mg/kg, 20, 20, 40 mg/kg TID, N = 11, mean, read-out: AUC0-24, Day 28): 490 µg·h/mL
- Cmax (40 mg/kg, 20, 20, 40 mg/kg TID, N = 11, mean, read-out: Cmax, Day 1): 76000 ng/mL
- Cmax (40 mg/kg, 20, 20, 40 mg/kg TID, N = 11, mean, read-out: Cmax, Day 28): 46000 ng/mL

Source: US9226919B2, “Methods for dosing an orally active 1,2,4-oxadiazole” (PTC Therapeutics, Inc., priority 2006, dated 2016)
